Laboratory results taken from US10045968B2, “Bicyclic compound, production and use thereof” (TOBIRA THERAPEUTICS, INC., priority 2001, dated 2018).

Target: T1, human CCR5 (Homo sapiens, UniProt P51681)
T1 construct: expressed in transfected cells; host or cells: CHO-K1 cells, stably transfected with pCKR5 (pcDNA3.1 backbone), Geneticin-selected
Experiment: Inhibition of [125I]-RANTES binding to CCR5/CHO cells (CCR5 antagonist activity)
Details: test compound 1 μM, 100 pM [125I]-RANTES as ligand, room temperature; for inhibition at 1 µM: 40 min, read-out: Binding Inhibitory Ratio (%); for Binding Inhibitory Ratio (%): 40 minutes
Description: (1) Cloning of Human CCR5 Chemokine Receptor Cloning of CCR5 gene was conducted from human spleen cDNA by PCR method. Using cDNA (0.5 ng) from spleen (Toyobo, QUICK-Clone cDNA) as a genetic template, primer sets prepared by referring to CCR5 gene nucleotide sequence described by Samson et al. (Biochemistry 35 (11), 3362-3367 (1996), i.e., (2) Preparation of Expression Plasmid of Human CCR5 […] The DNA fragments and an expression plasmid for animal cells pcDN A3.1 (Funakoshi), which was previously digested by XbaI and BamHI, were mixed and ligated by DNA Ligation Kit Ver. 2 (Takara Shuzo). Transformation of E. coli JM109 competent cells (Takara Shuzo) gave plasmid pCKR5. (3) Introduction of the Human CCR5 Expression Plasmid into CHO-K1 Cells and Expression Thereof […] The cells were washed with PBS (Lifetech Oriental), centrifuged (1000 rpm, 5 minutes), and resuspended in PBS. The DNA was introduced into the cells using Gene Pulser (BioRad) according to the following conditions. […] The cells were diluted to a concentration of 10^4 cells/ml, and inoculated in 96 well plate (Becton Dickinson), to obtain Geneticin-resistant cells. The Geneticin-resistant cells ware grown in 96 well plate (Becton Dickinson), and CCR5 expressing cells were selected from the resistant cells. Namely, in an assay buffer, (Ham F12 medium containing 0.5% BSA, and 20 mM HEPES (Wako Pure Chemical Ind., pH 7.2)), containing 200 pM [^125I]-RANTES (Amersham) as a ligand, the cells were subjected to binding reaction at room temperature for 40 minutes. The well plate containing the cells was washed with ice-cooled PBS, added with 1M NaOH in an amount of 50 μl/well and stirred. The cells to which the ligand bound specifically, i.e., CCR5/CHO cells, were selected by measurement of radioactivity by γ-counter. (4) Evaluation of Compounds Based on CCR5 Antagonist Activity The CCR5/CHO cells were inoculated in 96 well microplate at a concentration of 5×10^4 cells/well, and grown for 24 hours. After removal of the medium by aspiration, to each well was added an assay buffer containing a test compound (1 μM), and (^125I)/RANTES (Amersham) used as a ligand at a concentration of 100 pM. The mixture was subjected to the reaction at room temperature for 40 minutes. After removal of the assay buffer by aspiration, each well was washed with cooled PBS twice. Then, 200 μl MicroScint 20 (Packerd) was added to each well, and the radioactivity of each well was measured by TopCount (Packard). According to the method above, inhibitory ratios to CCR5 binding of the test compounds were determined.

T1 sequence (P51681 whole entry): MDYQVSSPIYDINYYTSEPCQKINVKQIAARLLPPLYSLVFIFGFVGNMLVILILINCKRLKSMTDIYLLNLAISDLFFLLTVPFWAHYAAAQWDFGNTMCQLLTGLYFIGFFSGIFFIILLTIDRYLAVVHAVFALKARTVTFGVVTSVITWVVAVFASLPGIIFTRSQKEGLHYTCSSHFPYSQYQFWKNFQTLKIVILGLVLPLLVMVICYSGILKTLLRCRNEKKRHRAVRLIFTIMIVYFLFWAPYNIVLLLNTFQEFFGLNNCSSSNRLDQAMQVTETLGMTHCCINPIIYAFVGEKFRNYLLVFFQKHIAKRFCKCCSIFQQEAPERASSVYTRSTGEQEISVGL

| Compound | inhibition at 1 µM [%] | Binding Inhibitory Ratio (%) |
| --- | --- | --- |
| CCCCOCCOc1ccc(-c2ccc3c(c2)C=C(C(=O)Nc2ccc([S+]([O-])Cc4nncn4CCC)cc2)CCCN3CC(C)C)cc1 (single isomer, unassigned; (+)) [Compound 48, (+)-8-[4-(2-butoxyethoxy)phenyl]-1-isobutyl-N-[4-[[(4-propyl-4H-1,2,4-triazol-3-yl)methyl]sulfinyl]phenyl]-1,2,3,4-tetrahydro-1-benzazocine-5-carboxamide] | 97 |  |
| CCCCOCCOc1ccc(-c2ccc3c(c2)C=C(C(=O)Nc2ccc([S+]([O-])Cc4nncn4CCC)cc2)CCCN3CCC)cc1 (single isomer, unassigned; (+)) [Compound 53, (+)-8-[4-(2-butoxyethoxy)phenyl]-1-propyl-N-[4-[[(4-propyl-4H-1,2,4-triazol-3-yl)methyl]sulfinyl]phenyl]-1,2,3,4-tetrahydro-1-benzazocin-5-carboxamide] |  | 100 |
| CCCCOCCOc1ccc(-c2ccc3c(c2)C=C(C(=O)Nc2ccc([S+]([O-])Cc4cncn4CCC)cc2)CCCN3CCC)cc1 (single isomer, unassigned; (-)) [Compound 9, (−)-8-[4-(2-butoxyethoxy)phenyl]-1-propyl-N-[4-[[[1-propylimidazol-5-yl]methyl]sulfinyl]phenyl]-1,2,3,4-tetrahydro-1-benzoazocine-5-carboxamide] | 100 |  |
| CCCCOCCOc1ccc(-c2ccc3c(c2)C=C(C(=O)Nc2ccc([S+]([O-])Cc4cncn4CCC)cc2)CCCN3CC(C)C)cc1.CS(=O)(=O)O (single isomer, unassigned; (-)) [Compound 14, (−)-8-[4-(2-butoxyethoxy)phenyl]-1-isobutyl-N-[4-[[[1-propyl-1H-imidazol-5-yl]methyl]sulfinyl]phenyl]-1,2,3,4-tetrahydro-1-benzoazocine-5-carboxamide methanesulfonate] |  | 98 |
| CCCCOCCOc1ccc(-c2ccc3c(c2)C=C(C(=O)Nc2ccc([S+]([O-])Cc4nccn4CCC)cc2)CCCN3CCC)cc1 (single isomer, unassigned; (-)) [Compound 22, (−)-8-[4-(2-butoxyethoxy)phenyl]-1-propyl-N-[4-[[[1-propylimidazol-2-yl]methyl]sulfinyl]phenyl]-1,2,3,4-tetrahydro-1-benzoazocine-5-carboxamide] | 98 |  |
| C=C(C)CN1CCCC(C(=O)Nc2ccc([S+]([O-])Cc3cncn3CCC)cc2)=Cc2cc(-c3ccc(OCCOCCCC)cc3)ccc21 (single isomer, unassigned; (-)) [Compound 23, (−)-8-[4-(2-butoxyethoxy)phenyl]-1-(2-methyl-2-propen-1-yl)-N-[4-[[[1-propylimidazol-5-yl]methyl]sulfinyl]phenyl]-1,2,3,4-tetrahydro-1-benzoazocine-5-carboxylic] |  | 97 |
| CCCCOCCOc1ccc(-c2ccc3c(c2)C=C(C(=O)Nc2ccc([S+]([O-])Cc4cncn4CCC)cc2)CCCCN3CC(C)C)cc1 (single isomer, unassigned; (-)) [Compound 26, (−)-9-[4-(2-butoxyethoxy)phenyl]-1-isobutyl-N-[4-[[[1-propylimidazol-5-yl]methyl]sulfinyl]phenyl]-2,3,4,5-tetrahydro-1H-1-benzoazonin-6-carboxamide] | 100 |  |
| CCCCOCCOc1ccc(-c2ccc3c(c2)C=C(C(=O)Nc2ccc([S+]([O-])Cc4cncn4CCC)cc2)CCCN3Cc2cnn(C)c2)cc1 (single isomer, unassigned; (-)) [Compound 34, (−)-8-[4-(2-butoxyethoxy)phenyl]-1-((1-methylpyrazol-4-yl)methyl)-N-[4-[[[1-propylimidazol-5-yl]methyl]sulfinyl]phenyl]-1,2,3,4-tetrahydro-1-benzoazocine-5-carboxamide] | 97 |  |
| CCCCOCCOc1ccc(-c2ccc3c(c2)C=C(C(=O)Nc2ccc([S+]([O-])Cc4nncn4CCC)cc2)CCCN3CC(C)C)cc1 (single isomer, unassigned; (-)) [Compound 49, (−)-8-[4-(2-butoxyethoxy)phenyl]-1-isobutyl-N-[4-[[(4-propyl-4H-1,2,4-triazol-3-yl)methyl]sulfinyl]phenyl]-1,2,3,4-tetrahydro-1-benzazocine-5-carboxamide] |  | 91 |
| CCCCOCCOc1ccc(-c2ccc3c(c2)C=C(C(=O)Nc2ccc([S+]([O-])Cc4nncn4CCC)cc2)CCCN3CCC)cc1 (single isomer, unassigned; (-)) [Compound 52, (−)-8-[4-(2-butoxyethoxy)phenyl]-1-propyl-N-[4-[[[4-propyl-4H-1,2,4-triazol-3-yl]methyl]sulfinyl]phenyl]-1,2,3,4-tetrahydro-1-benzazocine-5-carboxamide] |  | 96 |
| CCCCOCCOc1ccc(-c2ccc3c(c2)C=C(C(=O)Nc2ccc(CN(C)C4CCOCC4)cc2)CCCO3)cc1 [Compound 1, 8-[4-(2-butoxyethoxy)phenyl]-N-[4-[[N-methyl-N-(tetrahydropyran-4-yl)amino]methyl]phenyl]-3,4-dihydro-2H-1-benzoxocin-5-carboxamide] | 94 |  |
| CCCCOCCOc1ccc(-c2ccc3c(c2)C=C(C(=O)Nc2ccc(CN(C)C4CCOCC4)cc2)CCCN3CCC)cc1 [Compound 2, 8-[4-(2-butoxyethoxy)phenyl]-1-propyl-N-[4-[[N-methyl-N-(tetrahydropyran-4-yl)amino]methyl]phenyl]-1,2,3,4-tetrahydro-1-benzazocine-5-carboxamide] | 96 |  |
| CCCCOCCOc1ccc(-c2ccc3c(c2)C=C(C(=O)Nc2ccc(SCc4cncn4CCC)cc2)CCCN3CCC)cc1 [Compound 3, 8-[4-(2-butoxyethoxy)phenyl]-1-propyl-N-[4-[[[1-propylimidazol-5-yl]methyl]sulfanyl]phenyl]-1,2,3,4-tetrahydro-1-benzazocine-5-carboxamide] | 91 |  |
| CCCCOCCOc1ccc(-c2ccc3c(c2)C=C(C(=O)Nc2ccc([S+]([O-])Cc4cncn4CCC)cc2)CCCN3CCC)cc1 (stereo not shown) [Compound 4, 8-[4-(2-butoxyethoxy)phenyl]-1-propyl-N-[4-[[[1-propylimidazol-5-yl]methyl]sulfinyl]phenyl]-1,2,3,4-tetrahydro-1-benzazocine-5-carboxamide] |  | 100 |
| CCCCOCCOc1ccc(-c2ccc3c(c2)C=C(C(=O)Nc2ccc(S(=O)(=O)Cc4cncn4CCC)cc2)CCCN3CCC)cc1 [Compound 5, 8-[4-(2-butoxyethoxy)phenyl]-1-propyl-N-[4-[[[1-propylimidazol-5-yl]methyl]sulfonyl]phenyl]-1,2,3,4-tetrahydro-1-benzazocine-5-carboxamide] | 86 |  |
| CCCCOCCOc1ccc(-c2ccc3c(c2)C=C(C(=O)Nc2ccc(SCc4cncn4CCC)cc2)CCCN3CC(C)C)cc1 [Compound 6] |  | 98 |
| CCCCOCCOc1ccc(-c2ccc3c(c2)C=C(C(=O)Nc2ccc([S+]([O-])Cc4cncn4CCC)cc2)CCCN3CC(C)C)cc1 (stereo not shown) [Compound 7, 8-[4-(2-butoxyethoxy)phenyl]-1-isobutyl-N-[4-[[[1-propyl-1H-imidazol-5-yl]methyl]sulfinyl]phenyl]-1,2,3,4-tetrahydro-1-benzazocine-5-carboxamide] | 100 |  |
| CCCCOCCOc1ccc(-c2ccc3c(c2)C=C(C(=O)Nc2ccc(SCc4cncn4CCC)cc2)CCCN3CC(C)C)cc1 [Compound 8, 8-[4-(2-butoxyethoxy)phenyl]-I-isobutyl-N-[4-[[[1-propyl-1H-imidazol-5-yl]methyl]sulfanyl]phenyl]-1,2,3,4-tetrahydro-1-benzazocine-5-carboxamide] |  | 99 |
| CCCCOCCOc1ccc(-c2ccc3c(c2)C=C(C(=O)Nc2ccc([S+]([O-])Cc4cncn4CCC)cc2)CCCN3CC(C)CO)cc1 (stereo not shown) [Compound 32, 8-[4-(2-butoxyethoxy)phenyl]-1-(2-methyl-3-hydroxy)propyl-N-[4-[[[1-propylimidazol-5-yl]methyl]sulfinyl]phenyl]-1,2,3,4-tetrahydro-1-benzoazocine-5-carboxamide] |  | 100 |
